Reference: US5047418A, “Method of stimulating histamine H3 -receptors” (Smith Kline & French Laboratories Limited, priority 1989, dated 1991)

Legend:
histamine H2 -receptor [1] = target: T1, histamine H2 -receptor (Cavia porcellus, UniProt P47747); experiment: Histamine H2-antagonist activity on guinea-pig atrium; details: read-out: pA2 (histamine H2 -antagonist activity) (converted)
T1 construct: On the guinea-pig atrium; from tissue; host or cells: guinea-pig atrium (isolated tissue)

histamine H1 -receptor [2] = target: T2, histamine H1 -receptor (Cavia porcellus, UniProt P31389); experiment: Histamine H1-agonist activity on guinea-pig ileum
Method: (§1) The activity of the compounds of the formula (1) at the histamine H1 - or H2 -receptor was assessed substantially as described by Parsons et al., Agents and Actions, 1976, 7(1), 31.

histamine H2 -receptor [3] = target: T1, histamine H2 -receptor; experiment: Histamine H2-agonist activity on guinea-pig atrium
Method: as §1

histamine H3 -receptor = target: T3, histamine H3 -receptor (Cavia porcellus, UniProt Q9JI35); experiment: Inhibition of electrically evoked twitch responses of guinea-pig ileum (histamine H3-agonist activity); details: read-out: EC50 (concentration of compound which caused 50% inhibition of the twitch response)
T3 construct: twitch responses of the guinea-pig ileum; from tissue; host or cells: guinea-pig ileum (isolated, electrically stimulated, organ bath)
Method: Inhibition of the electrically evoked twitch responses of the guinea-pig ileum by histamine H3 -receptor agonists was studied by addition of graded concentrations of the compound (in volumes of 25 μl or 79 μl) to the organ bath in a sequential manner. Each concentration of agonist was washed out of the bath when the response had reached equilibrium. A four minute period was allowed between each addition of the compound.

histamine H1 -receptor [4] = target: T2, histamine H1 -receptor; experiment: Histamine H1-antagonist activity on guinea-pig ileum
Method: as §1
On the guinea-pig ileum the compound of the formula (1) wherein X is CH2 had no histamine H1 -antagonist activity up to 10^-5 M.

T1 sequence (P47747 whole entry): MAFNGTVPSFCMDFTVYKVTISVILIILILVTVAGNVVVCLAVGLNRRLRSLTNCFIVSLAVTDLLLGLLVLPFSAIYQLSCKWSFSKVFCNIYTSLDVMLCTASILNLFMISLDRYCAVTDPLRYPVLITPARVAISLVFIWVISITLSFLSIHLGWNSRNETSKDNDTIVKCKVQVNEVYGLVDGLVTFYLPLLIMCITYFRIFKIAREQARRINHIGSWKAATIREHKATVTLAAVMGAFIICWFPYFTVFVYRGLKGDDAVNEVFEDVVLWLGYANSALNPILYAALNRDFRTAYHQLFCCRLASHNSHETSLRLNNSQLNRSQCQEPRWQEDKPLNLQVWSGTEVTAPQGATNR
T2 sequence (P31389 whole entry): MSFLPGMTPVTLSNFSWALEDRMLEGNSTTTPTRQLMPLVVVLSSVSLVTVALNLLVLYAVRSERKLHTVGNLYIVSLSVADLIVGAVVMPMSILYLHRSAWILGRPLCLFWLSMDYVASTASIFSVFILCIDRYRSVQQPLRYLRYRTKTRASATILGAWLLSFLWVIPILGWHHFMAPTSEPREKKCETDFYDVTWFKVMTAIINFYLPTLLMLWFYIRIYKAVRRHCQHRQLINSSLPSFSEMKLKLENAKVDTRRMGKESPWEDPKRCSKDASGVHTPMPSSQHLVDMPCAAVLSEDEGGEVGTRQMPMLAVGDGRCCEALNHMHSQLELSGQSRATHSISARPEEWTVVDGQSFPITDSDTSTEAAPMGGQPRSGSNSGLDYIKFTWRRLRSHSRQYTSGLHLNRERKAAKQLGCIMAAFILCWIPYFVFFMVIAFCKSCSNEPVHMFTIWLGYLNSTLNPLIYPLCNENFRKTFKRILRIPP
T3 sequence (Q9JI35 whole entry): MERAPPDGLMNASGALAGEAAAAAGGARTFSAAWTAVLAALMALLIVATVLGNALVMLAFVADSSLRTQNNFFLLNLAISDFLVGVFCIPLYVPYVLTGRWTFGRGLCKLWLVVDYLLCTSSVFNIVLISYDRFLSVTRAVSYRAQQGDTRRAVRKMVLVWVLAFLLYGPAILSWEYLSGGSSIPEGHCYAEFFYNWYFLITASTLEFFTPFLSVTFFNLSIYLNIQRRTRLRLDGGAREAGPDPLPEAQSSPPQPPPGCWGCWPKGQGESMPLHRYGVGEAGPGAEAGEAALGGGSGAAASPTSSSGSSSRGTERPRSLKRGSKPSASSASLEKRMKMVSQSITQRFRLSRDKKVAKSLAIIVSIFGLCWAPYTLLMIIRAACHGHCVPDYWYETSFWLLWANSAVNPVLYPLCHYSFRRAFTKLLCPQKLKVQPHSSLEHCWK

N=C(N)CCCc1c[nH]cn1 [X = CH2, 4-(4(5)-imidazolyl)butyramidine]
Kb (histamine H2 -receptor [1]): ~251 µM
concentration at which histamine H1 -agonist activity is demonstrated (histamine H1 -receptor [2]): > 10^-5 M
concentration at which histamine H2 -agonist activity is demonstrated (histamine H2 -receptor [3]): > 10^-5 M
EC50 (histamine H3 -receptor): 0.0011 µM
concentration at which histamine H1 -antagonist activity is demonstrated (histamine H1 -receptor [4]): > 10^-5 M

N=C(N)SCCc1c[nH]cn1 [X = S, S-[2-(4(5)-imidazolyl)ethyl]isothiourea]
Kb (histamine H2 -receptor [1]): 79.4 µM
concentration at which histamine H1 -agonist activity is demonstrated (histamine H1 -receptor [2]): 10^-4 to 10^-3 M
EC50 (histamine H3 -receptor): 0.0046 µM
